The text below walks through data of patent US6899886B2, “Acylacetonitriles, process for preparation thereof and miticides containing the same” (Otsuka Chemical Co., Ltd., priority 2000, dated 2005).

Molecules are shown by their SMILES.

What all share (assay type): in vivo
In data set [1] the test system is two-spotted spider mites. The data set can be described thus: Test Example 4: residual miticidal test on two-spotted spider mites (sprayed kidney bean plant). As to conditions: 200 ppm, 30 ml sprayed on kidney bean plant, counted 2 days later; for Adjusted mortality rate (%) 3 days after spraying: mites introduced 3 days after spraying; for Adjusted mortality rate (%) 5 days after spraying: mites introduced 5 days after spraying. On the procedure: • Test compound A: Compound No. 1 in table 3 (the compound of the invention). • Test compound B: Compound No. 2 in table 3 (the compound of the invention). • Test compound C: Compound No. 10 in table 3 (the compound of the invention). • Test compound E: Compound No. a-683 disclosed in table 1-a on page 81 of Japanese Unexamined Patent Publication No. 158137/1999. (2) Preparation of Emulsifiable Concentration
Emulsifiable concentrates were prepared by adding the test compound, acetone and Sorpol 355 (surfactant) to distilled water. These emulsions were set to contain acetone in the proportion of 5 wt. % and Sorpol 355 in the proportion of 0.01 wt. %. The concentration of the test compound was set at 200 ppm.
30 ml of each emulsifiable concentrate prepared above was sprayed onto a kidney bean plant (at the stage of true leaf growth) in a 9-cm pot, and air-dried. The pot was placed in a glass greenhouse. Each of the first and second leaves was cut into a piece having a size of 3×5 cm, and 15 female adults of two-spotted spider mite were introduced thereto after 3 and 5 days of the spraying. Those pieces of leaves were placed in a thermostatic chamber having a temperature of 25±1° C. The number of live and dead mites was counted 2 days later. The mortality rate thereof was calculated in the same manner as in test example 3 above.

For data set [2], the system named is rice plants, cucumbers, cabbages, spinaches, lettuces, tomatoes, leeks, carrots or kidney bean plants. The data set can be described thus: Test Example 6: phytotoxicity test. As to conditions: 0.2 liters/m^2. On the procedure: As test compounds, test compounds A, B and C above were used. The 20% wettable powders prepared in formulation example 2 were diluted 500 and 1,000 times. These diluted wettable powders were sprayed onto rice plants, cucumbers, cabbages, […], lettuces, tomatoes, leeks, carrots or kidney bean plants in an amount of 0.2 liters/m^2. The development of phytotoxicity was examined by the naked eye 7 and 14 days after the spraying. […] Further, 20% wettable powders using test compound B were diluted 50, 100 and 200 times, and sprayed onto cucumbers, cabbages, leeks or carrots in an amount of 0.2 liters/m^2. The development of phytotoxicity was examined by the naked eye 7 and 14 days after spraying.

Data set [3] has as its system two-spotted spider mites. Kind of data set: Test Example 3: miticidal test on two-spotted spider mites at low concentration. As to conditions: 20 ppm emulsifiable concentrate, 2 ml sprayed on leaf with 30 female adults; counted 2 days later. On the procedure:
• Test compound A: Compound No. 1 in table 3 (the compound of the invention). • Test compound B: Compound No. 2 in table 3 (the compound of the invention). • Test compound C: Compound No. 10 in table 3 (the compound of the invention). • Test compound D: Intermediate No. II-25 disclosed in table 2 on page 101 of Japanese Unexamined Patent Publication No. 158137/1999. (2) Preparation of Emulsifiable Concentrate
Emulsifiable concentrates were prepared by adding the test compound, acetone and Sorpol 355 (surfactant) to distilled water. These emulsions were set to contain acetone in the proportion of 5 wt. % and Sorpol 355 in the proportion of 0.01 wt. %. The concentration of the test compound was set at 20 ppm.
2 ml of each emulsifiable concentrate prepared above was sprayed onto a piece of a kidney bean leaf (2×4 cm) with 30 female adults of two-spotted spider mites. After being air-dried, the leaf was placed in a thermostatic chamber having a temperature of 25±1° C. The number of live and dead mites was counted 2 days later. The mortality rate was calculated using the following equation: Mortality rate={1−(survival rate in treated area)/(survival rate in untreated area)}×100

The subject of data set [4] is Apple (jonagold). Kind of data set: Test Example 5: phytotoxicity test on field crops. As to conditions: 20% wettable powder, degree of dilution 1000, 0.4 liters/m^2, 14 days after spraying. On the procedure: (§1) The 20% wettable powders obtained in formulation example 2 were diluted to a predetermined degree and sprayed onto crops in a field in an amount of 0.4 liters/m^2. In a predetermined period after spraying, the development of phytotoxicity was observed by the naked eye. As test compounds, test compounds A, B and C above were used.

In data set [5] the test system is Pear (hosui). Kind of data set: Test Example 5: phytotoxicity test on field crops. As to conditions: 20% wettable powder, degree of dilution 2000, 0.4 liters/m^2, 21 days after spraying. The protocol: as §1
Data set [6] deals with Orange (iyo). Kind of data set: Test Example 5: phytotoxicity test on field crops. The following applies: 20% wettable powder, degree of dilution 1000, 0.4 liters/m^2, 40 days after spraying. On the procedure: as §1
In data set [7] the test system is Apple (fuji). The data set can be described thus: Test Example 5: phytotoxicity test on field crops. As to conditions: 20% wettable powder, degree of dilution 1000, 0.4 liters/m^2, 27 days after spraying. On the procedure:
as §1

Data set [8] has as its system Tea (yabukita). Kind of data set: Test Example 5: phytotoxicity test on field crops. As to conditions: 20% wettable powder, degree of dilution 1000, 0.4 liters/m^2, 21 days after spraying. The protocol: as §1
Data set [9] relates to Grape (pione). The data set can be described thus: Test Example 5: phytotoxicity test on field crops. The following applies: 20% wettable powder, degree of dilution 2000, 0.4 liters/m^2, 28 days after spraying. The protocol:
as §1

For data set [10], the system named is Orange (mandarin). The data set can be described thus: Test Example 5: phytotoxicity test on field crops. The following applies: 20% wettable powder, degree of dilution 1000, 0.4 liters/m^2, 40 days after spraying. The protocol:
as §1

The subject of data set [11] is Orange (sour orange). The data set can be described thus: Test Example 5: phytotoxicity test on field crops. The following applies: 20% wettable powder, degree of dilution 400, 0.4 liters/m^2, 40 days after spraying. On the procedure:
as §1

Data set [12] concerns Eggplant (senryo). Kind of data set: Test Example 5: phytotoxicity test on field crops. The following applies: 20% wettable powder, degree of dilution 1000, 0.4 liters/m^2, 14 days after spraying. On the procedure:
as §1

Data set [13] concerns two-spotted spider mites. Kind of data set: whole plant or invertebrate. As to conditions: 48 h; 200 ppm sprayed onto kidney bean leaves; after 2 days; read-out: mortality rate of the two-spotted spider mites. The source says: A piece of non-woven fabric (4.5×5.5 cm) was suspended inside a plastic cup through an incision made in the lid of the plastic cup. After water was poured into the cup, the cup was covered with the lid. A kidney bean leaf (about 3.5×4.5 cm) was then placed on the sufficiently soaked, non-woven fabric. Another kidney bean leaf with two-spotted spider mites (about 30 mite samples) was placed on top of the first leaf, and the fabric and leaves were placed in a thermostatic chamber having a temperature of 25±2° C. and a humidity of 40%.
Miticidal formulations containing the compound of the invention (200 ppm) were prepared by adding an aqueous solution (100 ppm) of Sorpol 355 (manufactured by Toho Kagaku Co., Ltd.) to a methanol solution of the compound of the invention.
These miticidal formulations were sprayed onto the leaves, and the leaves were air-dried and placed in a thermostatic chamber (25±2° C., humidity 50%). The mortality rate of the two-spotted spider mites was calculated after 2 days.

Setting [14] is: 20% wettable powders diluted 500 and 1,000 times, nine plant kinds, 7 and 14 days after the spraying.

Consider `COC(=O)C(C#N)(C(=O)c1ccccc1C(F)(F)F)c1ccc(C(C)(C)C)cc1` (racemic) [Compound No. 1], for which the “Adjusted mortality rate (%) 3 days after spraying” value (“Adjusted mortality rate (%) 3 days” below) in [1] is given as 100%. Also, the “Adjusted mortality rate (%) 5 days after spraying” value (“Adjusted mortality rate (%) 5 days” below) in [1] is 95%. Moreover, the development of phytotoxicity entry in data set [2] (setting [14]) is “no development of phytotoxicity was observed”. The same molecule returned a mortality rate in [3] of 100%. Further, the Phytotoxicity result in data set [4], in [5], in [6], in [7], in data set [8] and in [9] was “None” in each case.
For the molecule `CCOC(=O)C(C#N)(C(=O)c1ccccc1C(F)(F)F)c1ccc(C(C)(C)C)cc1` (racemic) [Compound No. 2], the “Adjusted mortality rate (%) 3 days” value in data set [1] is 100%. Also, the “Adjusted mortality rate (%) 5 days” value in [1] came to 93%. The development of phytotoxicity result in data set [2] (20% wettable powders diluted 50, 100 and 200 times, cucumbers, cabbages, leeks or carrots, 7 and 14 days after spraying) is given as “no development of phytotoxicity was observed”; in [2] (setting [14]), “no development of phytotoxicity was observed”. The same molecule returned a mortality rate in data set [3] of 100%. Moreover, the Phytotoxicity result in [4], in data set [10], in data set [11], in data set [5], in data set [6] and in data set [7] was “None” throughout. The Phytotoxicity result in data set [8], in data set [12] and in data set [9] was “None” throughout.
Take `COCCOC(=O)C(C#N)(C(=O)c1ccccc1C(F)(F)F)c1ccc(C(C)(C)C)cc1` (racemic) [Compound No. 10]: the “Adjusted mortality rate (%) 3 days” value in data set [1] is given as 100%. Further, the “Adjusted mortality rate (%) 5 days” value in data set [1] is listed as 100%. The development of phytotoxicity result in data set [2] (setting [14]) was “no development of phytotoxicity was observed”. Moreover, in data set [3], the mortality rate worked out at 100%. For the same molecule, the Phytotoxicity entry in data set [4], in data set [5], in data set [6], in data set [7], in data set [8] and in data set [9] was “None” throughout.
One may read the mortality as the percentage killed. `COC(=O)C(C#N)(C(=O)c1ccccc1C(F)(F)F)c1ccc(Cl)cc1` (centres unmarked) [Compound No. 30, Methyl 2-(4-Chlorophenyl)-2-(2-Trifluoromethylbenzoyl)Cyanoacetate]: in data set [13], the mortality at 200 ppm is at least 50%.
